# Test results: patent US20090208979A1, “Method for identifying antipsychotic drug candidates” (priority 2008, published 2009)
# Read-outs that look alike come from different tables or passages of the source.
# Assays:
# PKCβ2 [1] = assay type: cell-based, rat
# GAD67 = assay type: cell-based, rat; details: whole cell lysates, vs control
# GAD67 mRNA = assay type: in vivo, rat; details: rats, 14 days daily IP (haloperidol 1 mg/kg, fluvoxamine 10 mg/kg, clozapine 10 mg/kg); frontal cortex; vs control
# ERK2 = details: whole cell lysates, normalized to total ERK2, vs control; for reduction of ERK2 phosphorylation: acute treatment, 15 minutes; for increase of ERK2 phosphorylation: chronic treatment, 7 days
# [2] = rats; haloperidol 1 mg/kg and fluvoxamine 10 mg/kg IP; cited from earlier work
# PKC [3] = system: PKC
# PKCβ2 [4] = assay type: in vivo, rat; details: rats, chronic 14 days IP; frontal cortex; vs control
# PKC [5] = system: PKC; remark: listed apart in the source
# PKCβ2 [6] = details: rat, in vivo, ip
# [7] = system: negative symptoms of schizophrenia; details: add-on to antipsychotic treatment; clinical studies; cited from earlier work
# [8] = chronic treatment, 7 days, whole cell lysates, vs control
# [9] = rats, 14 days daily IP (haloperidol 1 mg/kg, fluvoxamine 10 mg/kg, clozapine 10 mg/kg), frontal cortex, vs control
# [10] = rats, chronic 14 days IP, frontal cortex, vs control
smiles,measurement,setting,value
O=C(CCCN1CCC(O)(c2ccc(Cl)cc2)CC1)c1ccc(F)cc1 [haloperidol],increase of PKCβ2 protein level,PKCβ2 [1]; [8],106%
same,decrease of GAD67 protein level,"GAD67; acute treatment, 15 minutes",did not affect
same,decrease of GAD67 protein level,"GAD67; chronic treatment, 7 days",did not affect
same,PKCβ mRNA level,PKCβ mRNA; [9],significantly increased
same,GAD67 mRNA level,GAD67 mRNA,significantly increased
same,reduction of ERK2 phosphorylation,ERK2,did not alter
same,increase of ERK2 phosphorylation,ERK2,did not alter
same,brain and serum concentrations when coadministered compared with given individually,[2],not significantly changed
same,increase of PKC phosphorylation level,"PKC [3]; 15 minutes treatment (FIG. 11A), whole cell lysates, normalized to β-actin, vs control",134%
same,PKCγ mRNA level,PKCγ mRNA; [9],significantly increased
same,"PKCβ2 protein level, whole tissue lysate",PKCβ2 [4],significantly increased
same,increase of PKC phosphorylation in the membranal fraction,PKC [5]; [10],45%
same,increase of PKC phosphorylation in whole lysate,PKC [5]; [10],38%
COCCCC/C(=N\OCCN)c1ccc(C(F)(F)F)cc1 [fluvoxamine],increase of PKCβ2 protein level,PKCβ2 [1],did not affect
same,"PKCβ2 level, cytosolic compartment",PKCβ2 [6],reduced level
same,decrease of GAD67 protein level,"GAD67; chronic treatment, 7 days",60%
same,PKCβ mRNA level,"PKCβ mRNA; rat, in vivo",increased significantly
same,increase of PKC phosphorylation level,PKC [3],156%
same,PKCγ mRNA level,"PKCγ mRNA; rat, in vivo",increased significantly
same,increase of PKC phosphorylation in the membranal fraction,"PKC [5]; rat, in vivo, ip",50%
same,increase of PKC phosphorylation in whole lysate,"PKC [5]; rat, in vivo, ip",40%
CN1CCN(C2=Nc3cc(Cl)ccc3Nc3ccccc32)CC1 [clozapine],decrease of PKCβ2 protein level,"PKCβ2 [1]; acute treatment, 15 minutes, whole cell lysates, vs control",31%
same,decrease of PKCβ2 protein level,PKCβ2 [1]; [8],60%
same,decrease of GAD67 protein level,"GAD67; acute treatment, 15 minutes",25%
same,decrease of GAD67 protein level,"GAD67; chronic treatment, 7 days",73%
same,reduction of ERK2 phosphorylation,ERK2,67%
same,increase of ERK2 phosphorylation,ERK2,87%
CNCCCC12CCC(c3ccccc31)c1ccccc12 [maprotiline],effect on negative symptoms of schizophrenia,[7],did not improve negative symptoms
